The text below walks through data of US20040162263A1, “Pharmaceutical formulations targeting specific regions of the gastrointesinal tract” (priority 2002, published 2004).

For orientation: bioavailability means dose-corrected exposure relative to a reference, in per cent. By AUC(0-inf) is commonly meant total exposure, with the tail of the curve extrapolated.

The nature of series [1]: Physico-chemical properties of decitabine (solubility, stability). It is filed as physicochemical. Conditions: room temp.
The next series in a line: in vivo. Conditions: dog. The protocol: Pentostatin was administered to IVAP beagle dogs (n=3) at 0.2 mg/kg via intravenous, oral and through previously implanted intestinal ports (jejunum, ileum and colon). Extravascular administration of pentostatin was done in saline water for infusion or in a pH=7 phosphate buffer solution to control the intestinal pH. Blood samples were taken systemic and through a port in the portal vein, plasma separated and kept frozen at −20° C. until analysis.
Six adult male beagle dogs (obtained from Summit Ridge Farms, Susquehanna, Pa.; between the ages of 1 and 5 years and weighed between 9 and 16 kg) were prepared with indwelling catheters in the Upper and Lower Small Intestines (USI and LSI), Colon (IC) and Portal Vein (PV) and were dosed with pentostatin at 0.2 mg/kg. The drug formulation was delivered either orally, intraveneously or, in most cases, through the indwelling ports and blood samples were drawn to determine the pharmacokinetics of each permutation. Systemic blood samples were collected from acutely placed IV catheters in the brachial vein, while PV samples were collected through the indwelling port and catheter. All blood samples were spun down, the plasma decanted, frozen and stored at −70 deg Celsius before subject to analysis.
The IVAP dog is prepared with indwelling catheters attached to subcutaneous ports (Titanium Vascular Access Portsg from Access Technologies in Skokie, Ill.) for delivery of drug formulations directly to various parts of the Gastrointestinal Tract. […] In addition, collecting blood samples directly from the portal vein during parenteral as well as oral and intestinal delivery can be combined with direct portal delivery studies to tweeze apart the first pass effects of both liver and intestinal cell enzymatic degradation effects on the drug being tested. Next, delivery of various formulations under different conditions can help in the development of effective oral delivery systems. Finally, delivery of absorption enhancers at various intervals, prior to the delivery of the drug, can be used to determine the recovery time of intestinal wall integrity following dosing with a particular formulation.
IVAP dogs are fitted with three intestinal catheters, in addition to a portal vein catheter. Following induction of general anesthesia, the animal is placed in a supine position, scrubbed and prepped with betadine solution and draped under sterile conditions. A vertical midline incision is made through the skin and the abdominal cavity is entered. A 5F Heparin Coated CBAS® tubing, is inserted into the portal vein and secured with a purse string of 7-0 prolene suture. A small square of Surgicel® is placed over the insertion site and the fascia is closed over it to prevent leakage or dislodging of the tubing. The Upper Small Intestine (USI) port tubing is inserted 10 cm distal to the ligament of Treitz. The small bowel is then measured from the pyloric sphincter to the ileocecal valve and the Lower Small Intestine (LSI) port tubing is inserted one third of the way back from the ileocecal valve. The colon tubing is inserted 10 cm distal to the ileocecal valve (Colon). 7F Sylastic® tubing is used for each intestinal catheter. […] The tubings are secured with a silk “purse-string” suture and the modified Witzel Tunnel technique. After placement of the tubes, the bowel is secured to the abdominal wall and the proximal ends of the tubings are tunneled out of the abdominal cavity and into a subcutaneous pocket on the caudal aspect of the right chest, along with the PV catheter. The abdominal incision is closed in two layers. The Linea Alba is approximated with 0 Vicryl and the skin is closed with 2-0 Vicryl.
In case of IV administration, the drug is dissolved in normal sterile saline to a concentration of 1 mg/ml and is passed through a […] sterilizing filter prior to administration to the brachial vein.

A short description of series [2]: Physico-chemical properties of pentostatin (solubility, stability). It is filed as physicochemical.
The test system of series [3] is fetal hemoglobin levels (Hb F). Conditions: orally 8 mg/kg, repeatedly phlebotomized baboon; cited from earlier work.
The test system of another series is L1210 leukemic mice. As to conditions: cited from earlier work.

In the case of `Nc1ncn([C@H]2C[C@H](O)[C@@H](CO)O2)c(=O)n1` [Decitabine monohydrate], the stability entry in series [1] is given as “stable”.

In the case of `OC[C@H]1O[C@@H](n2cnc3c2NC=NC[C@H]3O)C[C@@H]1O` [pentostatin, 2′-deoxycoformycin], the “AUC2/AUC1 (portal vein)” value in “in vivo” (po) came out at 1.50. Further, the “Relative bioavailability in reference to oral” value in the series “in vivo” (male, beagle) amounted to 620%. The “Ratio Treat2/Treat1 of systemic bioavailability” value in “in vivo” (male, beagle, po) is given as 0.51. For the same compound, the “bioavailability % change, AVERAGE” value in the series “in vivo” (male, beagle, po) is on record as −26%. Besides, the “decrease in the systemic pentostatin bioavailability” value in the series “in vivo” (male, beagle, po) is listed as 50%. In “in vivo” (male, beagle, po, 0.2 mg/kg), the “Mean systemic AUC0-inf” value is 10,425 ± 6,652 (64) ng × min/ml. Moreover, the bioavailability is 5% in “in vivo” (male, beagle, po, 0.2 mg/kg, Individual bioavailability % change); 100% in the series “in vivo” (male, beagle, po, 0.2 mg/kg, Relative bioavailability calculated in portal vein); 100% in the series “in vivo” (male, beagle, po, 0.2 mg/kg, Relative bioavailability in reference to oral); 14.3% in the series “in vivo” (male, beagle, po, 0.2 mg/kg, pH 7, systemic bioavailability (F), mean); 28% in the series “in vivo” (male, beagle, po, 0.2 mg/kg, systemic bioavailability (F), mean). This compound also had an AUC(0-inf) in “in vivo” (male, beagle, po, 0.2 mg/kg, Mean systemic AUC0-inf) of 340 ng·h/mL. For the same compound, the “solubility in ethanol and methanol” value in series [2] is “slightly soluble”. Besides, the “stability in aqueous solution” value in series [2] (1 mg/ml) was “most stable at pH 7 or above and degrade quickly at pHs lower than 4”. Further, the “solid stability at high temperature and humidity” value in series [2] (37° C., 75% RH) is “loses the potency”. Moreover, in series [2] (at various pHs), the solubility in water result is reported as “freely soluble”. Moreover, the hygroscopicity result in series [2] (crystalline form) was “not hygroscopic”. Moreover, the solid stable result in series [2] (up to temperatures of 45° C.) was “at least 12 months”.

For `Nc1ncn([C@@H]2O[C@H](CO)[C@@H](O)[C@H]2O)c(=O)n1` [5-azacytidine], the “elevation in the fetal hemoglobin levels (Hb F)” value in series [3] is reported as “no elevation”. In addition, in the series with L1210 leukemic mice, the “activity parenteral versus oral” value is recorded as “more active when administered parenterally than orally”.
